Reference: US9738634B2, “Heterocyclic amide compound and herbicide” (SYNGENTA PARTICIPATIONS AG, priority 2013, dated 2017)

What was measured:
Type in all cases: in vivo
[1] = tested on: corn; assay: Test Example 3: soil treatment, effect on crop; c: corn; conditions: soil treatment, treatment dosage 320 g/ha
Outline: (§1)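 Crop and weed responses were judged three weeks after a uniform surface spray of the water-diluted emulsion at the given g/ha rate. Seeds sat beneath about 1.5 cm of sterilized diluvial soil, and boxes stood in a greenhouse at 25 to 30° C.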

[2] = tested on: beet; assay: Test Example 3: soil treatment, effect on crop; f: beet; conditions: soil treatment, treatment dosage 320 g/ha
Outline: as §1

[3] = tested on: crabgrass; assay: Test Example 3: weedkilling efficacy through soil treatment; D: crabgrass; conditions: soil treatment, treatment dosage 320 g/ha
Outline: as §1

[4] = tested on: catchweed; assay: Test Example 3: weedkilling efficacy through soil treatment; O: catchweed; conditions: soil treatment, treatment dosage 320 g/ha
Outline: as §1

[5] = tested on: chickweed; assay: Test Example 3: weedkilling efficacy through soil treatment; N: chickweed; conditions: soil treatment, treatment dosage 320 g/ha
Outline: as §1

[6] = tested on: oval-leafed pondweed; assay: Test Example 1: weedkilling efficacy, preemergent weed treatment in the submerged state; C: oval-leafed pondweed; conditions: treatment dosage 320 g/ha
Outline: (§2)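 Alluvial soil in Wagner pots flooded to 4 cm; barnyard grass, bulrush and oval-leafed pondweed seeds sown, then 2.5-leaf rice seedlings transplanted. Same day, emulsified compound diluted in water to set g/ha dosages and applied to water surface; greenhouse 25–30 °C, effect scored by criteria after 3 weeks.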

[7] = tested on: green foxtail; assay: Test Example 3: weedkilling efficacy through soil treatment; E: green foxtail; conditions: soil treatment, treatment dosage 320 g/ha
Outline: as §1

[8] = tested on: oval-leafed pondweed; assay: Test Example 2: weedkilling efficacy, growth period weed treatment in the submerged state; C: oval-leafed pondweed; conditions: treatment dosage 320 g/ha
Outline: (§3)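 First, alluvial soil in pots is flooded to 4 cm and mixed seed is sown. Next, plants grow in a greenhouse at 25 to 30° C until the 1-2 leaf stage. Then diluted emulsion is applied onto the water surface at the given g/ha rate, and injury is assessed after 3 weeks.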

[9] = tested on: fig-leafed goosefoot; assay: Test Example 3: weedkilling efficacy through soil treatment; M: fig-leafed goosefoot; conditions: soil treatment, treatment dosage 320 g/ha
Outline: as §1

[10] = tested on: wheat; assay: Test Example 3: soil treatment, effect on crop; e: wheat; conditions: soil treatment, treatment dosage 320 g/ha
Outline: as §1

[11] = tested on: birds-eye speedwell; assay: Test Example 3: weedkilling efficacy through soil treatment; p: birds-eye speedwell; conditions: soil treatment, treatment dosage 320 g/ha
Outline: as §1

[12] = tested on: bulrush; assay: Test Example 1: weedkilling efficacy, preemergent weed treatment in the submerged state; B: bulrush; conditions: treatment dosage 320 g/ha
Outline: as §2

[13] = tested on: bulrush; assay: Test Example 2: weedkilling efficacy, growth period weed treatment in the submerged state; B: bulrush; conditions: treatment dosage 320 g/ha
Outline: as §3

[14] = tested on: transplanted rice; assay: Test Example 1: preemergent weed treatment in the submerged state, effect on crop; a: transplanted rice; conditions: treatment dosage 320 g/ha
Outline: as §2

[15] = tested on: wild oat; assay: Test Example 3: weedkilling efficacy through soil treatment; G: wild oat; conditions: soil treatment, treatment dosage 320 g/ha
Outline: as §1

[16] = tested on: Indian mallow; assay: Test Example 3: weedkilling efficacy through soil treatment; K: Indian mallow; conditions: soil treatment, treatment dosage 320 g/ha
Outline: as §1

[17] = tested on: barnyard grass; assay: Test Example 2: weedkilling efficacy, growth period weed treatment in the submerged state; A: barnyard grass; conditions: treatment dosage 320 g/ha
Outline: as §3

[18] = tested on: barnyard grass; assay: Test Example 1: weedkilling efficacy, preemergent weed treatment in the submerged state; A: barnyard grass; conditions: treatment dosage 320 g/ha
Outline: as §2

[19] = tested on: rapeseed; assay: Test Example 3: soil treatment, effect on crop; g: rapeseed; conditions: soil treatment, treatment dosage 320 g/ha
Outline: as §1

[20] = tested on: redroot pigweed; assay: Test Example 3: weedkilling efficacy through soil treatment; L: redroot pigweed; conditions: soil treatment, treatment dosage 320 g/ha
Outline: as §1

[21] = tested on: black-grass; assay: Test Example 3: weedkilling efficacy through soil treatment; H: black-grass; conditions: soil treatment, treatment dosage 320 g/ha
Outline: as §1

[22] = tested on: soybean; assay: Test Example 3: soil treatment, effect on crop; d: soybean; conditions: soil treatment, treatment dosage 320 g/ha
Outline: as §1

[23] = tested on: Italian ryegrass; assay: Test Example 3: weedkilling efficacy through soil treatment; I: Italian ryegrass; conditions: soil treatment, treatment dosage 320 g/ha
Outline: as §1

[24] = tested on: barnyard grass; assay: Test Example 3: weedkilling efficacy through soil treatment; F: barnyard grass; conditions: soil treatment, treatment dosage 320 g/ha
Outline: as §1

[25] = tested on: directly sown rice; assay: Test Example 3: soil treatment, effect on crop; b: directly sown rice; conditions: soil treatment, treatment dosage 320 g/ha
Outline: as §1

[26] = tested on: common wind-grass; assay: Test Example 3: weedkilling efficacy through soil treatment; J: common wind-grass; conditions: soil treatment, treatment dosage 320 g/ha
Outline: as §1

SMILES	c: corn, effect on crop grade [1]	f: beet, effect on crop grade [2]	D: crabgrass, weedkilling efficacy grade [3]	O: catchweed, weedkilling efficacy grade [4]	N: chickweed, weedkilling efficacy grade [5]	C: oval-leafed pondweed, weed kill grade [6]	E: green foxtail, weedkilling efficacy grade [7]	C (oval-leafed pondweed) weedkilling efficacy grade [8]	M: fig-leafed goosefoot, weedkilling efficacy grade [9]	e: wheat, effect on crop grade [10]	P: birds-eye speedwell, weedkilling efficacy grade [11]	B: bulrush, weed kill grade [12]	B (bulrush) weedkilling efficacy grade [13]	a: transplanted rice, effect on crop grade [14]	G: wild oat, weedkilling efficacy grade [15]	K: Indian mallow, weedkilling efficacy grade [16]	A (barnyard grass) weedkilling efficacy grade [17]	A: barnyard grass, weed kill grade [18]	g: rapeseed, effect on crop grade [19]	L: redroot pigweed, weedkilling efficacy grade [20]	also measured
CC(C)(C(=O)Nc1cc(Oc2ccccc2)cc(Cl)n1)N1COCN(c2ccccc2)C1=O [A-2-36]	0 (weed kill ratio 5% or less (practically no effect))	2 (weed kill ratio 20% or more, less than 40%)	5 (weed kill ratio 90% or more, (practically complete withering))	0 (weed kill ratio 5% or less (practically no effect))	3 (weed kill ratio 40% or more, less than 70%)	5 (weed kill ratio 90% or more, (practically complete withering))	5 (weed kill ratio 90% or more, (practically complete withering))	5 (weed kill ratio 90% or more, (practically complete withering))	3 (weed kill ratio 40% or more, less than 70%)	0 (weed kill ratio 5% or less (practically no effect))	4 (weed kill ratio 70% or more, less than 90%)	5 (weed kill ratio 90% or more, (practically complete withering))	3 (weed kill ratio 40% or more, less than 70%)	2 (weed kill ratio 20% or more, less than 40%)	0 (weed kill ratio 5% or less (practically no effect))	0 (weed kill ratio 5% or less (practically no effect))	5 (weed kill ratio 90% or more, (practically complete withering))	5 (weed kill ratio 90% or more, (practically complete withering))	1 (weed kill ratio 5% or more, less than 20%)	3 (weed kill ratio 40% or more, less than 70%)	H: black-grass, weedkilling efficacy grade [21]: 5 (weed kill ratio 90% or more, (practically complete withering)); d: soybean, effect on crop grade [22]: 0 (weed kill ratio 5% or less (practically no effect)); I: Italian ryegrass, weedkilling efficacy grade [23]: 5 (weed kill ratio 90% or more, (practically complete withering)); F: barnyard grass, weedkilling efficacy grade [24]: 4 (weed kill ratio 70% or more, less than 90%); b: directly sown rice, effect on crop grade [25]: 0 (weed kill ratio 5% or less (practically no effect)); J: common wind-grass, weedkilling efficacy grade [26]: 5 (weed kill ratio 90% or more, (practically complete withering))
CC(C)(C(=O)Nc1cc(C(F)F)ccn1)N1COCN(c2ccccc2)C1=O [A-2-40]	2 (weed kill ratio 20% or more, less than 40%)	4 (weed kill ratio 70% or more, less than 90%)	5 (weed kill ratio 90% or more, (practically complete withering))	5 (weed kill ratio 90% or more, (practically complete withering))	4 (weed kill ratio 70% or more, less than 90%)	5 (weed kill ratio 90% or more, (practically complete withering))	5 (weed kill ratio 90% or more, (practically complete withering))	5 (weed kill ratio 90% or more, (practically complete withering))	4 (weed kill ratio 70% or more, less than 90%)	1 (weed kill ratio 5% or more, less than 20%)	5 (weed kill ratio 90% or more, (practically complete withering))	5 (weed kill ratio 90% or more, (practically complete withering))	5 (weed kill ratio 90% or more, (practically complete withering))	1 (weed kill ratio 5% or more, less than 20%)	5 (weed kill ratio 90% or more, (practically complete withering))	4 (weed kill ratio 70% or more, less than 90%)	5 (weed kill ratio 90% or more, (practically complete withering))	5 (weed kill ratio 90% or more, (practically complete withering))	4 (weed kill ratio 70% or more, less than 90%)	4 (weed kill ratio 70% or more, less than 90%)	H: black-grass, weedkilling efficacy grade [21]: 5 (weed kill ratio 90% or more, (practically complete withering)); d: soybean, effect on crop grade [22]: 3 (weed kill ratio 40% or more, less than 70%); I: Italian ryegrass, weedkilling efficacy grade [23]: 5 (weed kill ratio 90% or more, (practically complete withering)); F: barnyard grass, weedkilling efficacy grade [24]: 5 (weed kill ratio 90% or more, (practically complete withering)); b: directly sown rice, effect on crop grade [25]: 5 (weed kill ratio 90% or more, (practically complete withering)); J: common wind-grass, weedkilling efficacy grade [26]: 5 (weed kill ratio 90% or more, (practically complete withering))
